Data on 19 molecules can be found in patent publication US20240067662A1, “KRAS INHIBITORS” (Bristol-Myers Squibb Company, priority 2022, published 2024).

Each structure is given as a SMILES string.

GMPPNP-loaded KRAS G12C, sequence (P01116 1-188 isoform P01116-2 G12C): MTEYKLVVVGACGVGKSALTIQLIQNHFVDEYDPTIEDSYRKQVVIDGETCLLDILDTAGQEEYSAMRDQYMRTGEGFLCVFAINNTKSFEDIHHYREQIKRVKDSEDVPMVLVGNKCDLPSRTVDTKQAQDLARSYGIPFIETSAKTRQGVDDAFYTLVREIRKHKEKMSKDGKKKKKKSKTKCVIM

The assay concerns the target GMPPNP-loaded KRAS G12C (Homo sapiens, UniProt P01116, G12C). In words: KRAS G12C RAF Disruption Assay (HTRF). The conditions noted are these: recombinant GMPPNP-loaded KRAS G12C (5 nM), 20 min with compound; GST-RAF1 RBD (9 nM); HTRF signal; read-out: KRASG12C RAF Disruption Assay (IC50). The assay is classed as biochemical. The procedure, abridged: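 The read-out is an HTRF 520/495 emission ratio, with IC50 taken from dose-response curves. Compound was first incubated for 20 min at room temperature with active-state KRAS G12C (GMPPNP, 5 nM) in Tris pH 7.5/NaCl/MgCl2/DTT/BSA. RAF1 RBD-GST (9 nM, 20 min) and SA-Tb (0.25 nM, 3 h) were added in turn.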
As for `N#Cc1cccc2[nH]cc(-c3ncc4c(N5CCN(C(=O)/C(F)=C/c6ccccn6)CC5)nc(OC[C@@]56CCCN5C[C@H](F)C6)nc4c3F)c12` [Compound 133, 3-(8-fluoro-4-(4-((Z)-2-fluoro-3-(pyridin-2-yl)acryloyl)piperazin-1-yl)-2-(((2R, 7aS)-2-fluorotetrahydro-1H-pyrrolizin-7a(5H)-yl)methoxy)pyrido[4,3-d]pyrimidin-7-yl)-1H-indole-4-carbonitrile], the IC50 (usually the concentration that inhibits the measured activity by half) stood at 890 nM.

For `C#Cc1c(F)ccc2cc(O)cc(-c3ncc4c(N5C[C@H]6CC[C@@H](C5)N6C(=O)/C(F)=C/c5cc(C)ccn5)nc(OC[C@@]56CCCN5C[C@H](F)C6)nc4c3F)c12` [Compound 3, (Z)-1-((1R, 5S)-3-(7-(8-ethynyl-7-fluoro-3-hydroxynaphthalen-1-yl)-8-fluoro-2-(((2R, 7aS)-2-fluorotetrahydro-1H-pyrrolizin-7a(5H)-yl)methoxy)pyrido[4,3-d]pyrimidin-4-yl)-3,8-diazabicyclo[3.2.1]octan-8-yl)-2-fluoro-3-(4-methylpyridin-2-yl)prop-2-en-1-one], the half-inhibitory concentration (IC50) came out at 19 nM.

As to `C#Cc1cccc2cccc(-c3ncc4c(N5CCN(C(=O)/C(F)=C/c6cccnn6)CC5)nc(OC[C@@]56CCCN5C[C@H](F)C6)nc4c3F)c12` [Compound 127, (Z)-1-(4-(7-(8-ethynylnaphthalen-1-yl)-8-fluoro-2-(((2R, 7aS)-2-fluorotetrahydro-1H-pyrrolizin-7a(5H)-yl)methoxy)pyrido[4,3-d]pyrimidin-4-yl)piperazin-1-yl)-2-fluoro-3-(pyridazin-3-yl)prop-2-en-1-one], the half-inhibitory concentration (IC50) came out at 10 nM.

On to `C#Cc1c(F)ccc2cc(O)cc(-c3ncc4c(N5C[C@H]6CC[C@@H](C5)N6C(=O)/C(F)=C/c5ccc(C)cn5)nc(OC[C@@]56CCCN5C[C@H](F)C6)nc4c3F)c12` [Compound 6, (Z)-1-((1R, 5S)-3-(7-(8-ethynyl-7-fluoro-3-hydroxynaphthalen-1-yl)-8-fluoro-2-(((2R, 7aS)-2-fluorotetrahydro-1H-pyrrolizin-7a(5H)-yl)methoxy)pyrido[4,3-d]pyrimidin-4-yl)-3,8-diazabicyclo[3.2.1]octan-8-yl)-2-fluoro-3-(5-methylpyridin-2-yl)prop-2-en-1-one], for which the half-inhibitory concentration (IC50) came out at 45 nM.

`N#CC[C@H]1CN(c2nc(OC[C@@]34CCCN3C[C@H](F)C4)nc3c(F)c(-c4cc(F)ccc4C(F)(F)F)ncc23)CCN1C(=O)/C(F)=C/c1nccs1` [Example 45, 2-((S)-1-((Z)-2-fluoro-3-(thiazol-2-yl)acryloyl)-4-(8-fluoro-7-(5-fluoro-2-(trifluoromethyl)phenyl)-2-(((2R, 7aS)-2-fluorotetrahydro-1H-pyrrolizin-7a(5H)-yl)methoxy)pyrido[4,3-d]pyrimidin-4-yl)piperazin-2-yl)acetonitrile]: the IC50 was determined as 460 nM.

Regarding `C#Cc1c(F)ccc2cc(O)cc(-c3ncc4c(N5CCN(C(=O)/C(F)=C/c6ccccn6)CC5)nc(OC[C@]56CCC[C@H]5N(C)CCC6)nc4c3F)c12` [Example 59, (Z)-1-(4-(7-(8-ethynyl-7-fluoro-3-hydroxynaphthalen-1-yl)-8-fluoro-2-(((4aS, 7aR)-1-methyloctahydro-4aH-cyclopenta[b]pyridin-4a-yl)methoxy)pyrido[4,3-d]pyrimidin-4-yl)piperazin-1-yl)-2-fluoro-3-(pyridin-2-yl)prop-2-en-1-one], the IC50 is 2 nM.

Regarding `CN1CCC[C@H]1COc1nc(N2CCN(C(=O)/C(F)=C/c3ncccn3)[C@@H](CC#N)C2)c2cnc(-c3cccc4cccc(Cl)c34)c(F)c2n1` [Compound 20, 2-((S)-4-(7-(8-chloronaphthalen-1-yl)-8-fluoro-2-(((S)-1-methylpyrrolidin-2-yl)methoxy)pyrido[4,3-d]pyrimidin-4-yl)-1-((Z)-2-fluoro-3-(pyrimidin-2-yl)acryloyl)piperazin-2-yl)acetonitrile], the IC50 is 89 nM.

Regarding `C#Cc1c(F)ccc2cccc(-c3ncc4c(N5CCN(C(=O)/C(F)=C/c6ccccn6)C[C@@H]5C)nc(OC[C@@]56CCCN5C[C@H](F)C6)nc4c3F)c12` [Compound 89, (Z)-1-((S)-4-(7-(8-ethynyl-7-fluoronaphthalen-1-yl)-8-fluoro-2-(((2R, 7aS)-2-fluorotetrahydro-1H-pyrrolizin-7a(5H)-yl)methoxy)pyrido[4,3-d]pyrimidin-4-yl)-3-methylpiperazin-1-yl)-2-fluoro-3-(pyridin-2-yl)prop-2-en-1-one], the IC50 came out at 37 nM.

In the case of `C#Cc1c(F)ccc2cccc(-c3ncc4c(N5CCN(C(=O)/C(F)=C/c6ncccn6)C[C@@H]5C)nc(OC[C@@]56CCCN5C[C@H](F)C6)nc4c3F)c12` [Compound 90, (Z)-1-((S)-4-(7-(8-ethynyl-7-fluoronaphthalen-1-yl)-8-fluoro-2-(((2R, 7aS)-2-fluorotetrahydro-1H-pyrrolizin-7a(5H)-yl)methoxy)pyrido[4,3-d]pyrimidin-4-yl)-3-methylpiperazin-1-yl)-2-fluoro-3-(pyrimidin-2-yl)prop-2-en-1-one], the IC50 worked out at 110 nM.

Consider `N#CC[C@H]1CN(c2nc(OC[C@@]34CCCN3C[C@H](F)C4)nc3c(F)c(-c4cc(O)ccc4C(F)(F)F)ncc23)CCN1C(=O)/C(F)=C/c1ccccn1` [Compound 94, 2-((S)-4-(8-fluoro-2-(((2R, 7aS)-2-fluorotetrahydro-1H-pyrrolizin-7a(5H)-yl)methoxy)-7-(5-hydroxy-2-(trifluoromethyl)phenyl)pyrido[4,3-d]pyrimidin-4-yl)-1-((Z)-2-fluoro-3-(pyridin-2-yl)acryloyl)piperazin-2-yl)acetonitrile], for which the IC50 stood at 34 nM.

With `C#Cc1c(F)ccc2cc(O)cc(-c3ncc4c(N5C[C@H]6CC[C@@H](C5)N6C(=O)/C(F)=C/c5ncccn5)nc(OC[C@@]56CCCN5C[C@H](F)C6)nc4c3F)c12` [Compound 7, (Z)-1-((1R, 5S)-3-(7-(8-ethynyl-7-fluoro-3-hydroxynaphthalen-1-yl)-8-fluoro-2-(((2R, 7aS)-2-fluorotetrahydro-1H-pyrrolizin-7a(5H)-yl)methoxy)pyrido[4,3-d]pyrimidin-4-yl)-3,8-diazabicyclo[3.2.1]octan-8-yl)-2-fluoro-3-(pyrimidin-yl)prop-2-en-1-one], the IC50 worked out at 16 nM.

Consider `C#Cc1cccc2cccc(-c3ncc4c(N5CCN(C(=O)/C(F)=C/c6ccccn6)C[C@H]5C)nc(OC[C@@]56CCCN5C[C@H](F)C6)nc4c3F)c12` [Example 75, (Z)-1-((3R)-4-(7-(8-ethynylnaphthalen-1-yl)-8-fluoro-2-(((2R, 7aS)-2-fluorotetrahydro-1H-pyrrolizin-7a(5H)-yl)methoxy)pyrido[4,3-d]pyrimidin-4-yl)-3-methylpiperazin-1-yl)-2-fluoro-3-(pyridin-2-yl)prop-2-en-1-one], for which the IC50 amounted to 57 nM.

For `C#Cc1c(F)ccc2cc(O)cc(-c3ncc4c(N5CCN(C(=O)/C(F)=C/c6ccccn6)C[C@@H]5C)nc(OC[C@@]56CCCN5C[C@H](F)C6)nc4c3F)c12` [Example 65, (Z)-1-((S)-4-(7-(8-ethynyl-7-fluoro-3-hydroxynaphthalen-1-yl)-8-fluoro-2-(((2R, 7aS)-2-fluorotetrahydro-1H-pyrrolizin-7a(5H)-yl)methoxy)pyrido[4,3-d]pyrimidin-4-yl)-3-methylpiperazin-1-yl)-2-fluoro-3-(pyridin-2-yl)prop-2-en-1-one], the IC50 stood at 4.5 nM.

Regarding `CN1CCC[C@H]1COc1nc(N2CCN(C(=O)/C(F)=C/c3ccccn3)[C@@H](CC#N)C2)c2cnc(-c3cccc4ccc(F)cc34)c(F)c2n1` [Example 36, 2-((S)-1-((Z)-2-fluoro-3-(pyridin-2-yl)acryloyl)-4-(8-fluoro-7-(7-fluoronaphthalen-1-yl)-2-(((S)-1-methylpyrrolidin-2-yl)methoxy)pyrido[4,3-d]pyrimidin-4-yl)piperazin-2-yl)acetonitrile], the IC50 amounted to 150 nM.

Take `C#Cc1cccc2cccc(-c3ncc4c(N5CCN(C(=O)/C(F)=C/c6cncc(C)n6)CC5)nc(OC[C@@]56CCCN5C[C@H](F)C6)nc4c3F)c12` [Compound 125, (Z)-1-(4-(7-(8-ethynylnaphthalen-1-yl)-8-fluoro-2-(((2R, 7aS)-2-fluorotetrahydro-1H-pyrrolizin-7a(5H)-yl)methoxy)pyrido[4,3-d]pyrimidin-4-yl)piperazin-1-yl)-2-fluoro-3-(6-methylpyrazin-2-yl)prop-2-en-1-one]: the IC50 was determined as 480 nM.

For the molecule `C#Cc1cccc2cccc(-c3ncc4c(N5CCC6(CCN6C(=O)/C(F)=C/c6ccccn6)C5)nc(OC[C@@]56CCCN5C[C@H](F)C6)nc4c3F)c12` (single isomer, unassigned) [Compound 104], the IC50 was found to be 16000 nM.

With `N#CC[C@H]1CN(c2nc(OC[C@@]34CCCN3C[C@H](F)C4)nc3c(F)c(-c4cc(F)ccc4C(F)F)ncc23)CCN1C(=O)/C(F)=C/c1ccccn1` [Example 42, 2-((S)-4-(7-(2-(difluoromethyl)-5-fluorophenyl)-8-fluoro-2-(((2R, 7aS)-2-fluorotetrahydro-1H-pyrrolizin-7a(5H)-yl)methoxy)pyrido[4,3-d]pyrimidin-4-yl)-1-((Z)-2-fluoro-3-(pyridin-2-yl)acryloyl)piperazin-2-yl)acetonitrile], the half-maximal inhibitory concentration (IC50) stood at 760 nM.

In the case of `C#Cc1cccc2cccc(-c3ncc4c(N5CCC6(CCN6C(=O)/C(F)=C/c6ncccn6)C5)nc(OC[C@@]56CCCN5C[C@H](F)C6)nc4c3F)c12` (single isomer, unassigned) [Compound 105], the IC50 turned out to be 9700 nM.

With `C#Cc1cccc2cccc(-c3ncc4c(N5CCN(C(=O)/C(F)=C/c6nccs6)C[C@@H]5C)nc(OC[C@@]56CCCN5C[C@H](F)C6)nc4c3F)c12` [Example 62, (Z)-1-((S)-4-(7-(8-ethynylnaphthalen-1-yl)-8-fluoro-2-(((2R, 7aS)-2-fluorotetrahydro-1H-pyrrolizin-7a(5H)-yl)methoxy)pyrido[4,3-d]pyrimidin-4-yl)-3-methylpiperazin-1-yl)-2-fluoro-3-(thiazol-2-yl)prop-2-en-1-one], the IC50 came to 300 nM.
